{
  "source": "paper PMC10578023",
  "about": "(Cell Communication and Signaling : CCS, 2023)",
  "key": {"JAK1 JH2 domain": {"target": "JAK1 JH2 domain (Homo sapiens, UniProt P23458)", "sequence (P23458 583-855 limits assumed)": "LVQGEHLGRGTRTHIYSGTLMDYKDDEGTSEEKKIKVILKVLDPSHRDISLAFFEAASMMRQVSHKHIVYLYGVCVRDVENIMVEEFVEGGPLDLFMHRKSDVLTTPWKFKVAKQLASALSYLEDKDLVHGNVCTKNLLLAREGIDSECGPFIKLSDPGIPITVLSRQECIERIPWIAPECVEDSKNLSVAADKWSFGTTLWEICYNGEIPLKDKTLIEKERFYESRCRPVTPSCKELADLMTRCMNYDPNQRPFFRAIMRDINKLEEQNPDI", "experiment": "JAK1 JH2 binding assay"}, "[1]": {"test_system": "panel of 207 kinase proteins", "experiment": "Kinase selectivity panel, ADP-Glo kinase assay", "type": "biochemical, human", "conditions": "1 μM", "experimental": "The selectivity of QL-1200186 was measured using a panel of 207 kinase proteins. QL-1200186 (final concentration = 1 μM) was placed in a 384-well plate. Different kinase solutions were configured in kinase buffer, HEPES (50 mM), MgCl2 (10 mM), 0.01% Brij, dithiothreitol (2 mM), and then transferred to 384-well plates. After incubation for 10 min at RT, the substrate and adenosine triphosphate were added, and the reaction was allowed to continue for 60 min. Kinase selectivity was determined by the ADP-Glo™ Kinase Assay (V9103; Promega, Fitchburg, WI, USA). Finally, a microplate reader (BMG Labtech, Ortenberg, Germany) was used to measure the luminescence signal. After data analysis, heatmaps and kinase selection trees were drawn using Prism 8.0.2 (GraphPad, La Jolla, CA, USA) and KinMap (www.kinmap.org/), respectively."}, "[2]": {"test_system": "forty-four safety targets", "experiment": "In vitro off-target panel of 44 safety targets", "conditions": "10 µM", "experimental": "The pharmacologic safety of QL-1200186 was tested by analyzing forty-four safety targets in vitro. The off-target effects of QL-1200186 on 24 G protein-coupled receptors (β1, β2, D1, H2, A2A, CB1, CB2,5-HT1A, 5-HT1B and D2S) were evaluated by measuring the changes in cyclic adenosine monophosphate and IP-1 levels. The effects of QL-1200186 on the current changes of eight ion-channel targets were determined by methods based on fluorescent imaging plate reading and patch clamps. Using stable transfer or transient plasmid transfer, the excitatory and inhibitory effects of QL-1200186 on glucocorticoid receptors and androgen receptors in the nucleus were determined by the change in luciferase expression. The inhibitory effects of QL-1200186 on seven enzymes (including cyclo-oxygenase-2, phosphodiesterase (PDE) 3A and PDE4D2) were evaluated by biochemical methods based on luminescence and fluorescence. After data analyses, radar charts were used to display the results."}, "TYK2/JAK1 [3]": {"test_system": "TYK2/JAK1", "experiment": "IL-23 HEK293 reporter assay", "type": "cell-based, human"}, "TYK2/JAK1 [4]": {"test_system": "TYK2/JAK1", "experiment": "IL-23-induced pSTAT3 in human Th17 cells", "type": "cell-based", "experimental": "Human naïve CD4^+ T cells were separated using a human naïve CD4^+ T-cell isolation kit (StemCell, #17,852), and then cells were stimulated with anti-CD3 monoclonal antibody and anti-CD28 monoclonal antibody for 7–10 days under the following Th17-skewing treatments: IL-6, IL-23, IL-1β and transforming growth factor-β. Half of the medium was replaced with fresh medium containing a stimulant to induce differentiation every other day. Th17 cells were incubated overnight at 37 °C for deactivation. Cells were reinoculated on 96-well plates and cocultured with gradient-diluted QL-1200186 for 1 h and then stimulated with recombinant human IL-23 (ACRO: #IL-B-H52 WS) for 0.5 h. Cells were collected, and phosphorylation of STAT3 was quantified according to the MFI."}, "JAK2/JAK2": {"test_system": "JAK2/JAK2", "experiment": "GM-CSF-stimulated pSTAT5 in U937 cells", "type": "cell-based, human", "experimental": "With respect to GM-CSF-stimulated JAK2 activation in U937 cells (Cobioer Biosciences, CBP60277), after 1 h of treatment with QL-1200186, U937 cells were stimulated with GM-CSF (20 ng/mL; C003; Novoprotein, Suzhou, China) for 15 min.\nThe stimulations stated above were terminated with prewarmed Lyse/Fix Buffer (558,049; BD Biosciences, San Jose, CA, USA) for 10 min. Cells were stained with an anti-cluster of differentiation (CD)3 fluorescein isothiocyanate (FITC) antibody (required for PBMCs but not for the other cell types), washed, and permeabilized on ice using Perm III Buffer (558,050; BD Biosciences) prior to staining with an Alexa Fluor 647 anti-phosphorylated (p)STAT5 (pY694) antibody for 30 min and analyzed by flow cytometry. Phosphorylation of STAT5 was quantified by the median fluorescence intensity (MFI) after gating on the CD3-positive population."}, "[5]": {"experiment": "Pharmacokinetic study in C57BL/6 mice", "type": "in vivo", "experimental": "The PK study was conducted using healthy male C57BL/6 mice (18–22 g, n = 6). Mice were fed and given free access to water prior to dosing. QL-1200186 was administered via oral or intravenous routes at doses of 10 mg/kg and 1 mg/kg, respectively. Blood samples were collected at 0.0833, 0.25, 0.5, 1, 2, 4, 8 and 24 h from the saphenous vein. Plasma was separated within 1 h of sampling by centrifugation at 1000 g. Liquid chromatography–tandem mass spectrometry of the sample was carried out on a mass spectrometer (API 5500; AB Sciex, Framingham, MA, USA). Chromatographic separation was achieved using a C18 column (2.6 µm, 50 × 3.0 mm; Kinetex; Phenomenex, Torrance, CA, USA). The main PK parameters were calculated by WinNonlin 8.0 (Certara, Princeton, NJ, USA)."}, "[6]": {"experiment": "Caco-2 permeability assay", "type": "in vitro ADME", "experimental": "(§1) The ADME properties of QL-1200186 in vitro were measured by the following assays: Caco-2 permeability assay, CYP inhibition assay, protein binding assay, and liver microsome assay. Each assay was performed as previously described."}, "[7]": {"experiment": "Liver microsome metabolic stability", "type": "in vitro ADME", "experimental": "as §1"}, "[8]": {"test_system": "imiquimod-induced psoriasis-like skin inflammation", "experiment": "Imiquimod-induced mouse model of psoriasis (PASI)", "type": "in vivo, mice", "experimental": "Healthy male BALB/c mice (18–20 g) were divided randomly into three groups of eight according to body weight using Excel™ (Office™; Microsoft). After 1 week of adaptive feeding, mice received a daily topical dose of 62.5 mg of 5% imiquimod cream ([…]; Aldara®; 3 M Pharmaceuticals, Maplewood, MN, USA) on the shaved back and left ear for 7 consecutive days. Control mice were treated similarly with vehicle cream (Vaseline lanette creme; Fagron, Amsterdam, the Netherlands). Mice in the treatment group were given QL-1200186 (5 mg/kg or 1 mg/kg) orally twice a day (p.o., b.i.d.).\nThe Psoriasis Area and Severity Index (PASI) consists of erythema, scaling and skin thickness measurements. Mice were evaluated from day 1 when imiquimod was given for 7 consecutive days. The thickness of the mouse skin was measured using a micrometer. The PK parameters were also measured."}, "[9]": {"conditions": "dogs, data not shown"}},
  "data": [
    {"smiles": "CNC(=O)c1cnc2cc1Nc1cc(cc(-c3ccn(C)n3)c1OC)CCOCc1cccc(n1)N2", "note": "[QL-1200186, 5^6-methoxy-N-methyl-5^5-(1-methyl-1H-pyrazol-3-yl)-8-oxa-2,4-diaza-1(2,6),3(2,4)-dipyridina-5(1,3)-benzenacyclononaphane-3^5-carboxamide]", "values": [
      {"measurement": "IC50", "setting": "JAK1 JH2 domain", "value": 9.85, "unit": "nM"},
      {"measurement": "inhibition rates for all 207 kinases tested", "setting": "[1]", "value": "below 50%"},
      {"measurement": "in vitro off-target safety, 44 safety targets", "setting": "[2]", "value": "suitable safety"},
      {"measurement": "IC50", "setting": "TYK2/JAK1 [3]", "value": 0.46, "unit": "nM"},
      {"measurement": "IC50", "setting": "TYK2/JAK1 [4]", "value": 1.03, "unit": "nM"},
      {"measurement": "GM-CSF-pSTAT5 in U937 (JAK2/JAK2) inhibition", "setting": "JAK2/JAK2; @10μM", "value": "no inhibition @10μM"},
      {"measurement": "IC50", "setting": "JAK2/JAK2; JAK2/JAK2-dependent, read-out: GM-CSF-stimulated STAT5 phosphorylation IC50", "value": "> 10000", "unit": "nM"},
      {"measurement": "AUC", "setting": "[5]; intravenous 1 mg/kg", "value": 1482, "unit": "ng·h/mL"},
      {"measurement": "CL", "setting": "[5]; intravenous 1 mg/kg", "value": 11.6, "unit": "mL/min/kg"},
      {"measurement": "MRTInf", "setting": "[5]; intravenous 1 mg/kg", "value": 1.22, "unit": "h"},
      {"measurement": "T1/2", "setting": "[5]; intravenous 1 mg/kg", "value": 1.45, "unit": "h"},
      {"measurement": "Vss", "setting": "[5]; intravenous 1 mg/kg", "value": 0.842, "unit": "L/kg"},
      {"measurement": "AUC", "setting": "[5]; oral 10 mg/kg", "value": 20320, "unit": "ng·h/mL"},
      {"measurement": "Cmax", "setting": "[5]; oral 10 mg/kg", "value": 3543, "unit": "ng/mL"},
      {"measurement": "F (bioavailability)", "setting": "[5]; oral 10 mg/kg", "value": 137, "unit": "%"},
      {"measurement": "MRTInf", "setting": "[5]; oral 10 mg/kg", "value": 4.34, "unit": "h"},
      {"measurement": "T1/2", "setting": "[5]; oral 10 mg/kg", "value": 2.73, "unit": "h"},
      {"measurement": "Caco-2 ER (efflux ratio)", "setting": "[6]", "value": 1.4},
      {"measurement": "Metabolic Stability L.M. T1/2", "setting": "[7]; Dog", "value": 1.42, "unit": "h"},
      {"measurement": "Metabolic Stability L.M. T1/2", "setting": "[7]; Human", "value": "> 3.107", "unit": "h"},
      {"measurement": "Metabolic Stability L.M. T1/2", "setting": "[7]; Monkey", "value": 1.2, "unit": "h"},
      {"measurement": "Metabolic Stability L.M. T1/2", "setting": "[7]; Mouse", "value": 1.28, "unit": "h"},
      {"measurement": "Metabolic Stability L.M. T1/2", "setting": "[7]; Rat", "value": 1.823, "unit": "h"},
      {"measurement": "psoriasis severity according to the thickness score", "setting": "[8]; day 7", "value": "significantly alleviated psoriasis severity"},
      {"measurement": "psoriasis-like inflammatory symptoms (erythema, scaling, thickening; PASI)", "setting": "[8]; vs imiquimod group, p.o., b.i.d., n = 8", "value": "significantly improved psoriasis-like inflammatory symptoms"},
      {"measurement": "safety in toxicological studies", "setting": "[9]", "value": "excellent safety"}
    ]}
  ]
}
